Experimental data from US20060241026A1, “Novel cyclic peptides and use thereof as anti-microbial agents” (priority 2002, published 2006).
In brackets after ≈: the same amount, converted by molar mass. Like-named read-outs stand apart in the source and are kept apart here. Positions of bridges follow the written chain, without caps; N, C: chain ends. Residues, ends and D or L forms follow the SMILES beside them. No end group written: not given here.

Tests used:
Format in all cases: cell-based
[1] = tested on: Fusarium oxysporum; settings: 24 h
Method: (§1) The anti-fungal activity was determined by calculating the MIC in a growth inhibition assay for the shrimp parasite fungus Fusarium oxysporum, in liquid phase, according to the protocol described by FELHBAM et al. (J. Biol. Chem., 1994, 269:33159-63). Doubling dilutions of each peptide were realized in the wells of a Microtest plate in a volume of 10 μl. 90 μl of spores resuspended in potato dextrose broth medium (DIFCO) at a final concentration of 10^4 spores/ml were added to each well. The growth inhibition was measured after incubation for 24 h at 25° C. in the dark, by observation under an optical microscope and measurement of the increase in OD at 600 nm. The value of the MIC corresponds to the first well for which the optical density had not increased.

[2] = tested on: Staphylococcus aureus
Method: (§2) The activity of the synthetic peptides was tested with respect to the Gram+ bacteria Mycrocossus luteus, Staphylococcus aureus, Staphylococcus epidermidis and Bacillus megaterium. The activities were determined according to the protocol described by HANCOCK et al. (http://www.interchg.ubc.ca/bobh/methods.htm)
(§3) The MIC was determined for each peptide by inhibition of growth in liquid medium. Doubling dilution of peptide was realized in the wells of a Microtest plate in a volume of 10 μl. The bacteria were grown in MUELLER HINTON BROTH (MHB, Difco) liquid medium. During the exponential growth phase, a solution with an optical density of 0.001 at 600 nm was produced, and 100 μl of this suspension were added to each well. The incubation lasted 24 h at 30° C., and the optical densities of each well were then measured at 600 nm. The value of the MIC corresponds to the first well for which the optical density had not changed.
(§4) The dishes were incubated for 24 h at 30° C. The value of the MBC corresponds to the lowest concentration of the peptide for which no colony developed.

[3] = tested on: Bacillus megaterium; settings: Bacillus
Method: as §2, §3, §4

[4] = tested on: Staphylococcus epidermidis
Method: as §2, §3, §4

[5] = tested on: Micrococcus luteus
Method: as §2, §3, §4

[6] = tested on: Gram+ and Gram− bacteria and a filamentous fungus; assay: Antibiotic tests on Gram+ and Gram- bacteria and on a filamentous fungus, summary in words; settings: compared with the native molecule or the minimal loop
Method: as §2, §3, §4, §1
Using the 3-D structure of the native molecule as a basis, said molecule was fractionated into 17 elements (table I). All these fragments were synthesized and their activities were assayed using antibiotic tests on Gram+ and Gram− bacteria and on a filamentous fungus. The minimum inhibitory concentration (MIC) and minimum […] concentration (MBC) of each peptide were thus determined and were compared with those of the native molecule.

[7] = tested on: Micrococcus lysodeikticus
Method: as §3, §4

CC(C)C[C@@H]1NC(=O)[C@H](CCCNC(=N)N)NC(=O)[C@H](Cc2c[nH]cn2)NC(=O)[C@H](Cc2c[nH]c3ccccc23)NC(=O)CNC(=O)CNC(=O)[C@@H](NC(=O)[C@H](Cc2ccc(O)cc2)NC(=O)CNC(=O)CNC(=O)[C@@H](N)CO)CSSC[C@@H](C(=O)O)NC(=O)[C@H](CCCNC(=N)N)NC1=O [SEQ ID NO:4, SGGYC^(S)GGWHRLRS^(S)] (H-SGGYCGGWHRLRC-OH; disulfide 5-13; N-terminus and C-terminus assumed)
Fusarium oxysporum MIC [1]: 41 µM
Staphylococcus aureus MBC [2]: >75 µM
Staphylococcus aureus MIC [2]: 67 µM
Bacillus megaterium MBC [3]: >75 µM
Bacillus megaterium MIC [3]: 52 µM
Staphylococcus epidermidis MBC [4]: >75 µM
Staphylococcus epidermidis MIC [4]: 38 µM
Micrococcus luteus MBC [5]: 13 µM
Micrococcus luteus MIC [5]: 26 µM
MIC on M leuteus ([5]; 24 h): 67 µM (≈ 97.1 µg/mL)

CC(C)C[C@@H]1NC(=O)[C@H](CCCNC(=N)N)NC(=O)[C@H](Cc2c[nH]cn2)NC(=O)[C@H](Cc2c[nH]c3ccccc23)NC(=O)CNC(=O)CNC(=O)[C@H](CO)NC(=O)[C@H](Cc2ccc(O)cc2)NC(=O)CNC(=O)CNC(=O)[C@@H](N)CSSC[C@@H](C(=O)NCC(=O)O)NC(=O)[C@H](CCCNC(=N)N)NC(=O)[C@H](Cc2ccc(O)cc2)NC(=O)[C@H](CO)NC(=O)[C@H]([C@@H](C)O)NC(=O)[C@H](CO)NC(=O)[C@H](CCCNC(=N)N)NC1=O [SEQ ID NO:5, C^(S)GGYSGGWHRLRSTSYRC^(S)G] (H-CGGYSGGWHRLRSTSYRCG-OH; disulfide 1-18; N-terminus and C-terminus assumed)
Fusarium oxysporum MIC [1]: 18.5 µM
Staphylococcus aureus MBC [2]: >75 µM
Staphylococcus aureus MIC [2]: 14 µM
Bacillus megaterium MBC [3]: 75 µM
Bacillus megaterium MIC [3]: 24 µM
Staphylococcus epidermidis MBC [4]: >75 µM
Staphylococcus epidermidis MIC [4]: 35 µM
Micrococcus luteus MBC [5]: 18 µM
Micrococcus luteus MIC [5]: 18 µM
MBC on M leuteus ([5]; 24 h): 13 µM (≈ 27.3 µg/mL)

CC[C@H](C)[C@@H]1NC(=O)[C@H](CO)NC(=O)[C@H](CCCCN)NC(=O)[C@@H](NC(=O)[C@H](Cc2c[nH]cn2)NC(=O)[C@H](CCCNC(=N)N)NC(=O)[C@H](Cc2c[nH]cn2)NC(=O)[C@H](CO)NC(=O)[C@H](CCC(N)=O)NC(=O)[C@H](Cc2ccc(O)cc2)NC(=O)[C@H](CC(N)=O)NC(=O)[C@H](CC(N)=O)NC(=O)[C@@H]2CCCN2)CSSC[C@@H](C(=O)O)NC(=O)[C@H](CCCNC(=N)N)NC(=O)CNC(=O)[C@@H]2CCCN2C1=O [SEQ ID NO:11, PNNYQSHRHCKSIPGRC] (H-PNNYQSHRHCKSIPGRC-OH; disulfide 10-17; N-terminus and C-terminus assumed)
MIC on M leuteus ([5]; 24 h): >75 µM

CC[C@H](C)[C@@H]1NC(=O)[C@H](CO)NC(=O)[C@H](CCCCN)NC(=O)[C@@H](N)CSSC[C@@H](C(=O)NCC(=O)O)NC(=O)[C@H](CCCNC(=N)N)NC(=O)CNC(=O)[C@@H]2CCCN2C1=O [SEQ ID NO:15, CKSIPGRCG] (H-CKSIPGRCG-OH; disulfide 1-8; N-terminus and C-terminus assumed)
MIC on M leuteus ([5]; 24 h): >75 µM
anti-microbial activity (in words) [6]: show no activity

C[C@@H](O)[C@@H]1NC(=O)[C@H](CO)NC(=O)[C@H](CO)NC(=O)[C@H](Cc2ccc(O)cc2)NC(=O)CNC(=O)CNC(=O)[C@@H](N)CSSC[C@@H](C(=O)NCC(=O)O)NC(=O)[C@H](CCCNC(=N)N)NC(=O)[C@H](Cc2ccc(O)cc2)NC(=O)[C@H](CO)NC1=O [SEQ ID NO:16, CGGYSSTSYRCG] (H-CGGYSSTSYRCG-OH; disulfide 1-11; N-terminus and C-terminus assumed)
MIC on M leuteus ([5]; 24 h): >75 µM
anti-microbial activity (in words) [6]: do not comprise any intrinsic activity

CC(C)C[C@@H]1NC(=O)[C@H](CCCNC(=N)N)NC(=O)[C@H](CCCCN)NC(=O)[C@H](Cc2c[nH]c3ccccc23)NC(=O)CNC(=O)CNC(=O)[C@@H](N)CSSC[C@@H](C(=O)O)NC(=O)[C@H](CCCNC(=N)N)NC1=O [SEQ ID NO:19, C^(S)GGWKRLRC^(S)] (H-CGGWKRLRC-OH; disulfide 1-9; N-terminus and C-terminus assumed)
Staphylococcus aureus MBC [2]: 20 µM
Staphylococcus aureus MIC [2]: 33 µM
Micrococcus lysodeikticus MIC [7]: 13 µM

N=C(N)NCCC[C@@H]1NC(=O)[C@H](CCCCN)NC(=O)[C@H](CCCNC(=N)N)NC(=O)[C@H](CCCCN)NC(=O)[C@H](Cc2c[nH]c3ccccc23)NC(=O)CNC(=O)CNC(=O)[C@@H](N)CSSC[C@@H](C(=O)O)NC1=O [SEQ ID NO:20, C^(S)GGWKRKRC^(S)] (H-CGGWKRKRC-OH; disulfide 1-9; N-terminus and C-terminus assumed)
Staphylococcus aureus MBC [2]: 16 µM
Staphylococcus aureus MIC [2]: 23 µM
Micrococcus lysodeikticus MIC [7]: 8 µM

N=C(N)NCCC[C@@H]1NC(=O)[C@H](CCCCN)NC(=O)[C@H](CCCNC(=N)N)NC(=O)[C@H](CCCCN)NC(=O)[C@H](Cc2c[nH]c3ccccc23)NC(=O)[C@H](CCCCN)NC(=O)[C@H](CCCCN)NC(=O)[C@@H](N)CSSC[C@@H](C(=O)O)NC1=O [SEQ ID NO:21, C^(S)KKWKRKRC^(S)] (H-CKKWKRKRC-OH; disulfide 1-9; N-terminus and C-terminus assumed)
Staphylococcus aureus MBC ([2]; Table III): 9.9 µM
Staphylococcus aureus MIC ([2]; Table III): 4.4 µM
Staphylococcus epidermidis MIC ([4]; Table III): 6.8 µM
Micrococcus lysodeikticus MBC ([7]; Table III): 9.9 µM
Micrococcus lysodeikticus MIC ([7]; Table III): 6 µM

N=C(N)NCCC[C@@H]1NC(=O)[C@H](CCCCN)NC(=O)[C@H](CCCNC(=N)N)NC(=O)[C@H](CCCCN)NC(=O)[C@H](Cc2c[nH]c3ccccc23)NC(=O)[C@H](CCCCN)NC(=O)[C@@H](N)CSSC[C@@H](C(=O)O)NC1=O [SEQ ID NO:22, C^(S)KWKRKRC^(S)] (H-CKWKRKRC-OH; disulfide 1-8; N-terminus and C-terminus assumed)
Staphylococcus aureus MBC ([2]; Table III): 14.8 µM
Staphylococcus aureus MIC ([2]; Table III): 6.6 µM
Micrococcus lysodeikticus MBC ([7]; Table III): 14.8 µM
Micrococcus lysodeikticus MIC ([7]; Table III): 14.8 µM

N=C(N)NCCC[C@@H]1NC(=O)[C@H](CCCCN)NC(=O)[C@H](CCCNC(=N)N)NC(=O)[C@H](CCCCN)NC(=O)[C@H](Cc2c[nH]c3ccccc23)NC(=O)[C@@H](N)CSSC[C@@H](C(=O)O)NC1=O [SEQ ID NO:23, C^(S)WKRKRC^(S)] (H-CWKRKRC-OH; disulfide 1-7; N-terminus and C-terminus assumed)
Staphylococcus aureus MBC ([2]; Table III): 22.2 µM
Staphylococcus aureus MIC ([2]; Table III): 22.2 µM
Micrococcus lysodeikticus MIC ([7]; Table III): 22.2 µM
anti-microbial activity (in words) [6]: weaker

N=C(N)NCCC[C@@H]1NC(=O)[C@H](CCCCN)NC(=O)[C@H](Cc2c[nH]c3ccccc23)NC(=O)[C@@H](N)CSSC[C@@H](C(=O)O)NC(=O)[C@H](CCCCN)NC1=O [SEQ ID NO:24, C^(S)WKRKC^(S)] (H-CWKRKC-OH; disulfide 1-6; N-terminus and C-terminus assumed)
Staphylococcus aureus MBC ([2]; Table III): >50 µM
Staphylococcus aureus MIC ([2]; Table III): >50 µM
Micrococcus lysodeikticus MIC ([7]; Table III): >50 µM
anti-microbial activity (in words) [6]: does not exhibit any significant biological activity

GFGSPNNYQS [SEQ ID NO:8, GFGSPNNYQS]
MIC on M leuteus ([5]; 24 h): >75 µM

GFGSPNNYQSHRHSKSIPGR [SEQ ID NO:9]
MIC on M leuteus ([5]; 24 h): >75 µM

NYQSHRHSKS [SEQ ID NO:13, NYQSHRHSKS]
MIC on M leuteus ([5]; 24 h): >75 µM

PNNYQSHRHSKSIPGRGR [SEQ ID NO:10, PNNYQSHRHSKSIPGRGR]
MIC on M leuteus ([5]; 24 h): >75 µM

PNNYQSHRHSKSIPGRS [SEQ ID NO:12, PNNYQSHRHSKSIPGRS]
MIC on M leuteus ([5]; 24 h): >75 µM

RLRSTSYRSG [SEQ ID NO:18, RLRSTSYRSG]
MIC on M leuteus ([5]; 24 h): >75 µM

SGGWHRLRS [SEQ ID NO:17, SGGWHRLRS]
MIC on M leuteus ([5]; 24 h): >75 µM
anti-microbial activity (in words) [6]: devoid of activity

SKSIPGRSG [SEQ ID NO:14, SKSIPGRSG]
MIC on M leuteus ([5]; 24 h): >75 µM
anti-microbial activity (in words) [6]: show no activity
